From patent US20130011376A1, “Methods for Enhancing Natural Killer Cell Proliferation and Activity” (GAMIDA CELL LTD., priority 2009, published 2013)
Like-named read-outs stand apart in the source and are kept apart here.

Legend:
[1] = system: colo205 colorectal adenocarcinoma cell line; format: cell-based; settings: 5 mM nicotinamide, all E:T ratios tested (1:1 to 10:1)
[2] = system: cord-blood derived CD56+ cells; experiment: Transwell chemotaxis (migration) assay; format: cell-based, human
Protocol: Chemotaxis (“migration”) assay: Migration response (chemotaxis) of human NK cells was assayed by Transwell migration assay (Costar, Cambridge, Mass.; 6.5-mm diameter, 5-μm pore size). Briefly, 100 μL chemotaxis buffer (RPMI 1640, 1% FCS) containing 2×10^5 NK cells was added to the upper chamber, and 0.5 mL chemotaxis buffer with or without 250 ng/ml stromal-derived factor CXCL12 (“SDF-1”) (R&D Systems) was added to the bottom chamber. Cells migrating within 4 hours to the bottom chamber of the “transwell” were counted for 60 seconds using FACScalibur (Becton Dickinson Immunocytometry Systems).

BL2 target cells = format: cell-based; settings: 2.5 mM or 5.0 mM nicotinamide for 3 weeks; E:T 1:1 to 10:1
Protocol: (§1) “Killing” assay: NK cells (effectors cells=E) are combined with K562 or BL2 (target cells=T), or bi-phenotypic leukemia cells at different E to T ratio (E:T). BL2 or K562, or bi-phenotypic leukemia target cells in PBS were labeled with 1 ng/ml CFSE (Invitrogen) for 15 min at 37° C. Calf Serum was added to the cells for 15 minutes, the cells were then washed and resuspended in RPMI medium. 100 μL of bi-phenotypic leukemia, BL2 or K562 cells were placed in a 96 round bottom plate at a concentration of 5×10^3 cells per well. 100 μL of non-stained NK cells were added to the bi-phenotypic leukemia, BL2 or K562 cells at a E:T ratio of 1:1, 2.5:1, 5:1, 10:1 or 20:1 (5×10^3, 1.25×10^4, 2.5×10^4, 5×10^4 and 1×10^5 cells/well, respectively, as indicated). Between 2-48 hours later. Killing of target cells in cell lines such as K562 and BL-2 was determined by FACS as a percentage propidium-iodine (PI)-positive (dead) CFSE-labeled cells. Killing of the primary leukemia cells was determined by counting with the FACS the number of CFSE stained cells that remained in the culture after their culture with the NK cells. A lower number of CFSE+ cells is indicative of higher level of killing.

K562 target cells = format: cell-based
Protocol: as §1

[3] = system: human primary bi-phenotypic leukemia cells; format: cell-based; settings: after 24 hours, NK cells of 2 donors (Donor A and Donor B)
Protocol: as §1

[4] = system: monocyte (CD14+) and granulocyte (CD15+) cells; experiment: Contaminating monocytes and granulocytes in NK cell cultures (FACS); format: cell-based, human; settings: 14 days culture
Protocol: For depletion procedure, total nuclear cells from umbilical cord blood (CB), bone marrow (BM) or peripheral blood (PB) cells were layered on a Ficoll-Hypaque gradient (1.077 g/mL; Sigma), and centrifuged at 800×g for 30 minutes for separation of the mononuclear cells. The cells in the interface layer were collected and washed three times in phosphate-buffered saline (PBS) (Biological Industries, Israel) containing 0.5% HSA. Optionally, cells are not separated on the Ficoll-Hypaque gradient but washed three times in phosphate-buffered saline (PBS) (Biological Industries) containing 0.5% HSA (“total mononuclear fraction”). CD3 cells were depleted using the CD3 cell isolation kit (Miltenyi Biotec Bergisch, Gladbach, Germany) and the entire CD3 negative cell fraction was cultured. […] After negative depletion the cells were counted and characterized by FACS analysis.
3. […] To estimate number of cells in culture, cell samples were counted following staining with trypan blue. […]
Methods for expansion of NK cells in culture, for use in the clinical setting, must be somewhat specific for the NK cell population, lest contaminating non-NK cells also proliferate due to cell culture conditions. The effect of nicotinamide on non-NK cells was evaluated by monitoring monocyte and granulocyte populations in NK cell cultures exposed to 2.5, 5 and 7.5 mM nicotinamide.

NC(=O)c1cccnc1 [nicotinamide]
cytotoxic potential towards solid tumor cells [1]: increased killing potential
migration in response to SDF stimulus ([2]; cells cultured with 2.5 or 5 mM nicotinamide, 250 ng/ml SDF): greatly enhanced
motility in the absence of SDF stimulus ([2]; nicotinamide-cultured CD56+ cells, no SDF): enhanced motility
killing (cytotoxic) potential vs cells cultured in growth factors only (BL2 target cells): far greater
killing (cytotoxic) potential vs cells cultured in growth factors only (K562 target cells; 2.5 mM or 5.0 mM nicotinamide for 3 weeks, E:T 1:1 to 10:1): far greater
killing (cytotoxic) potential vs cells cultured in growth factors only (K562 target cells; E:T ratios of 1:5, 1:10 and 1:20 NK cells per target): far greater
cytotoxic potential of expanded NK cells [3]: increased activation of NK cells killing potential
suppression of CD14 proliferation [4]: greater than 50%
suppression of granulocyte proliferation [4]: greater than 50%
